The NIST ThermoML archive (doi:10.1021/je300175w)
Several values for one entry are separate records, joined by “and”; a condition that tells them apart may be missing. Equal entries are not always repeated. ± gives the expanded uncertainty stated by the source.

Experiment: mn = molality of the nth substance listed, in mol/kg
Details: 101 kPa, Liquid; for speed of sound: Sing-around technique in a fixed-path interferometer; for mass density: Vibrating tube method

CCC(CO)(CO)CO [2-ethyl-2-(hydroxymethyl)-1,3-propanediol] + O
speed of sound
Details	278.15 K	283.15 K	288.15 K	293.15 K	298.15 K	308.15 K	318.15 K
m1 = 0.09974	1436 ± 0.72 m/s and 1436.1 ± 0.72 m/s	1456.4 ± 0.73 m/s and 1456.5 ± 0.73 m/s	1474.5 ± 0.74 m/s	1490.3 ± 0.74 m/s	1504.1 ± 0.75 m/s	1526.5 ± 0.76 m/s and 1526.2 ± 0.76 m/s	1542.2 ± 0.76 m/s and 1542 ± 0.76 m/s
m1 = 0.1998	1445.7 ± 0.73 m/s	1465.3 ± 0.74 m/s and 1465.4 ± 0.74 m/s	1482.8 ± 0.74 m/s	1498 ± 0.75 m/s	1511.3 ± 0.75 m/s	1532.7 ± 0.76 m/s and 1532.4 ± 0.76 m/s	1547.6 ± 0.76 m/s and 1547.4 ± 0.76 m/s
m1 = 0.3	1455.1 ± 0.74 m/s	1474.1 ± 0.74 m/s	1490.9 ± 0.75 m/s	1505.6 ± 0.75 m/s	1518.3 ± 0.76 m/s	1538.9 ± 0.76 m/s and 1538.5 ± 0.76 m/s	1552.8 ± 0.77 m/s and 1552.7 ± 0.77 m/s
m1 = 0.3961	1464 ± 0.74 m/s	1482.3 ± 0.75 m/s and 1482.4 ± 0.75 m/s	1498.5 ± 0.75 m/s	1512.7 ± 0.76 m/s	1524.9 ± 0.76 m/s	1544.6 ± 0.77 m/s and 1544.3 ± 0.77 m/s	1557.4 ± 0.77 m/s and 1557.6 ± 0.77 m/s
m1 = 0.5048	1473.8 ± 0.75 m/s	1491.4 ± 0.75 m/s	1507 ± 0.76 m/s	1520.5 ± 0.76 m/s	1532.2 ± 0.77 m/s	1550.9 ± 0.77 m/s and 1550.5 ± 0.77 m/s	1562.8 ± 0.78 m/s and 1563 ± 0.78 m/s

CCC(CO)(CO)COCC(CC)(CO)CO [3,3,7,7-tetrakis(hydroxymethyl)-5-oxanonane] + O
speed of sound
Details	278.15 K	283.15 K	288.15 K	293.15 K	298.15 K	308.15 K	318.15 K
m1 = 0.01972	1429.8 ± 0.72 m/s	1450.6 ± 0.73 m/s	1469 ± 0.73 m/s	1485.2 ± 0.74 m/s	1499.3 ± 0.74 m/s	1522.2 ± 0.75 m/s and 1522 ± 0.75 m/s	1538.2 ± 0.76 m/s and 1538.3 ± 0.76 m/s
m1 = 0.04105	1433.6 ± 0.72 m/s and 1433.7 ± 0.72 m/s	1454.1 ± 0.73 m/s	1472.3 ± 0.74 m/s	1488.2 ± 0.74 m/s	1502.1 ± 0.75 m/s	1524.5 ± 0.75 m/s and 1524.3 ± 0.75 m/s	1540.2 ± 0.76 m/s and 1540.3 ± 0.76 m/s
m1 = 0.06045	1437.1 ± 0.73 m/s	1457.3 ± 0.73 m/s	1475.2 ± 0.74 m/s	1490.9 ± 0.74 m/s	1504.6 ± 0.75 m/s	1526.6 ± 0.76 m/s and 1526.4 ± 0.76 m/s	1542 ± 0.76 m/s and 1542.1 ± 0.76 m/s
m1 = 0.079	1440.3 ± 0.73 m/s	1460.3 ± 0.73 m/s	1478 ± 0.74 m/s	1493.4 ± 0.74 m/s	1506.9 ± 0.75 m/s	1528.6 ± 0.76 m/s and 1528.4 ± 0.76 m/s	1543.7 ± 0.76 m/s and 1543.8 ± 0.76 m/s

CC(CO)CO [2-methyl-1,3-propanediol] + O
speed of sound
Details	278.15 K	283.15 K	288.15 K	293.15 K	298.15 K	308.15 K	318.15 K
m1 = 0.1097	1434 ± 0.72 m/s	1454.5 ± 0.73 m/s and 1454.4 ± 0.73 m/s	1472.6 ± 0.74 m/s	1488.5 ± 0.74 m/s	1502.3 ± 0.75 m/s and 1502.4 ± 0.75 m/s	1524.7 ± 0.75 m/s	1540.4 ± 0.76 m/s and 1540.6 ± 0.76 m/s
m1 = 0.1997	1440.3 ± 0.73 m/s and 1440.4 ± 0.73 m/s	1460.3 ± 0.73 m/s	1477.9 ± 0.74 m/s and 1478 ± 0.74 m/s	1493.4 ± 0.74 m/s	1506.9 ± 0.75 m/s	1528.6 ± 0.76 m/s	1543.8 ± 0.76 m/s and 1544 ± 0.76 m/s
m1 = 0.3091	1448 ± 0.73 m/s	1467.3 ± 0.74 m/s	1484.4 ± 0.74 m/s	1499.4 ± 0.75 m/s	1512.4 ± 0.75 m/s	1533.6 ± 0.76 m/s and 1533.3 ± 0.76 m/s	1547.8 ± 0.77 m/s and 1548 ± 0.77 m/s
m1 = 0.3983	1454.1 ± 0.73 m/s	1472.9 ± 0.74 m/s and 1473 ± 0.74 m/s	1489.6 ± 0.75 m/s	1504.1 ± 0.75 m/s and 1504.2 ± 0.75 m/s	1516.8 ± 0.76 m/s	1537.3 ± 0.76 m/s and 1537 ± 0.76 m/s	1551.1 ± 0.77 m/s and 1551.2 ± 0.77 m/s

OCC(CO)(CO)CO [2,2-bis(hydroxymethyl)-1,3-propanediol] + O
Details	mass density	speed of sound
273.15 K, m1 = 0.1002	1003.54 ± 0.035 kg/m3 and 1003.55 ± 0.035 kg/m3	–
273.15 K, m1 = 0.1501	1005.3 ± 0.036 kg/m3 and 1005.29 ± 0.036 kg/m3	–
273.15 K, m1 = 0.2001	1007.05 ± 0.037 kg/m3 and 1007.04 ± 0.037 kg/m3	–
273.15 K, m1 = 0.2503	1008.77 ± 0.038 kg/m3	–
273.15 K, m1 = 0.3005	1010.48 ± 0.039 kg/m3	–
273.15 K, m1 = 0.35	1012.15 ± 0.04 kg/m3 and 1012.16 ± 0.04 kg/m3	–
278.15 K, m1 = 0.1002	–	1432.6 ± 0.72 m/s and 1432.7 ± 0.72 m/s
278.15 K, m1 = 0.1501	–	1435.8 ± 0.73 m/s
278.15 K, m1 = 0.2001	–	1439 ± 0.73 m/s
278.15 K, m1 = 0.2503	–	1442.1 ± 0.73 m/s and 1442.2 ± 0.73 m/s
278.15 K, m1 = 0.3005	–	1445.3 ± 0.73 m/s
278.15 K, m1 = 0.35	–	1448.3 ± 0.73 m/s and 1448.4 ± 0.73 m/s
283.15 K, m1 = 0.1002	1003.23 ± 0.035 kg/m3	1453.3 ± 0.73 m/s
283.15 K, m1 = 0.1501	1004.96 ± 0.036 kg/m3	1456.2 ± 0.73 m/s and 1456.3 ± 0.73 m/s
283.15 K, m1 = 0.2001	1006.68 ± 0.037 kg/m3 and 1006.69 ± 0.037 kg/m3	1459.2 ± 0.73 m/s
283.15 K, m1 = 0.2503	1008.38 ± 0.038 kg/m3 and 1008.39 ± 0.038 kg/m3	1462.2 ± 0.74 m/s
283.15 K, m1 = 0.3005	1010.07 ± 0.039 kg/m3 and 1010.08 ± 0.039 kg/m3	1465.1 ± 0.74 m/s
283.15 K, m1 = 0.35	1011.72 ± 0.04 kg/m3 and 1011.73 ± 0.04 kg/m3	1468 ± 0.74 m/s
288.15 K, m1 = 0.1002	1002.59 ± 0.035 kg/m3	1471.6 ± 0.74 m/s
288.15 K, m1 = 0.1501	1004.3 ± 0.036 kg/m3	1474.4 ± 0.74 m/s
288.15 K, m1 = 0.2001	1006 ± 0.037 kg/m3 and 1006.01 ± 0.037 kg/m3	1477.2 ± 0.74 m/s
288.15 K, m1 = 0.2503	1007.68 ± 0.038 kg/m3 and 1007.69 ± 0.038 kg/m3	1479.9 ± 0.74 m/s
288.15 K, m1 = 0.3005	1009.35 ± 0.038 kg/m3 and 1009.36 ± 0.038 kg/m3	1482.6 ± 0.74 m/s and 1482.7 ± 0.74 m/s
288.15 K, m1 = 0.35	1010.98 ± 0.039 kg/m3 and 1010.99 ± 0.039 kg/m3	1485.3 ± 0.75 m/s and 1485.4 ± 0.75 m/s
293.15 K, m1 = 0.1002	1001.66 ± 0.034 kg/m3	1487.7 ± 0.74 m/s
293.15 K, m1 = 0.1501	1003.35 ± 0.035 kg/m3	1490.3 ± 0.74 m/s
293.15 K, m1 = 0.2001	1005.04 ± 0.036 kg/m3 and 1005.03 ± 0.036 kg/m3	1492.9 ± 0.75 m/s and 1492.8 ± 0.75 m/s
293.15 K, m1 = 0.2503	1006.7 ± 0.037 kg/m3 and 1006.71 ± 0.037 kg/m3	1495.5 ± 0.75 m/s
293.15 K, m1 = 0.3005	1008.35 ± 0.038 kg/m3	1498 ± 0.75 m/s and 1498.1 ± 0.75 m/s
293.15 K, m1 = 0.35	1009.97 ± 0.039 kg/m3	1500.6 ± 0.75 m/s
298.15 K, m1 = 0.1002	1000.47 ± 0.034 kg/m3	1501.7 ± 0.75 m/s
298.15 K, m1 = 0.1501	1002.14 ± 0.035 kg/m3 and 1002.15 ± 0.035 kg/m3	1504.1 ± 0.75 m/s and 1504.2 ± 0.75 m/s
298.15 K, m1 = 0.2001	1003.82 ± 0.036 kg/m3	1506.6 ± 0.75 m/s
298.15 K, m1 = 0.2503	1005.47 ± 0.037 kg/m3	1509 ± 0.75 m/s and 1509.1 ± 0.75 m/s
298.15 K, m1 = 0.3005	1007.1 ± 0.038 kg/m3 and 1007.11 ± 0.038 kg/m3	1511.5 ± 0.75 m/s
298.15 K, m1 = 0.35	1008.7 ± 0.039 kg/m3 and 1008.71 ± 0.039 kg/m3	1513.9 ± 0.76 m/s
303.15 K, m1 = 0.1002	999.044 ± 0.034 kg/m3 and 999.045 ± 0.034 kg/m3	1513.8 ± 0.75 m/s
303.15 K, m1 = 0.1501	1000.71 ± 0.035 kg/m3	1516.2 ± 0.75 m/s
303.15 K, m1 = 0.2001	1002.36 ± 0.036 kg/m3 and 1002.37 ± 0.036 kg/m3	1518.5 ± 0.75 m/s
303.15 K, m1 = 0.2503	1004 ± 0.036 kg/m3	1520.8 ± 0.76 m/s
303.15 K, m1 = 0.3005	1005.62 ± 0.037 kg/m3	1523.1 ± 0.76 m/s and 1523 ± 0.76 m/s
303.15 K, m1 = 0.35	1007.22 ± 0.038 kg/m3 and 1007.21 ± 0.038 kg/m3	1525.3 ± 0.76 m/s
308.15 K, m1 = 0.1002	997.404 ± 0.035 kg/m3 and 997.402 ± 0.035 kg/m3	1524.3 ± 0.75 m/s
308.15 K, m1 = 0.1501	999.052 ± 0.035 kg/m3 and 999.053 ± 0.035 kg/m3	1526.5 ± 0.76 m/s and 1526.4 ± 0.76 m/s
308.15 K, m1 = 0.2001	1000.7 ± 0.035 kg/m3	1528.6 ± 0.76 m/s
308.15 K, m1 = 0.2503	1002.33 ± 0.036 kg/m3	1530.8 ± 0.76 m/s
308.15 K, m1 = 0.3005	1003.93 ± 0.037 kg/m3 and 1003.94 ± 0.037 kg/m3	1533 ± 0.76 m/s and 1532.9 ± 0.76 m/s
308.15 K, m1 = 0.35	1005.51 ± 0.038 kg/m3 and 1005.52 ± 0.038 kg/m3	1535.1 ± 0.76 m/s and 1535 ± 0.76 m/s
318.15 K, m1 = 0.1002	993.545 ± 0.037 kg/m3 and 993.543 ± 0.037 kg/m3	1540.4 ± 0.76 m/s
318.15 K, m1 = 0.1501	995.176 ± 0.036 kg/m3 and 995.177 ± 0.036 kg/m3	1542.3 ± 0.76 m/s and 1542.4 ± 0.76 m/s
318.15 K, m1 = 0.2001	996.806 ± 0.036 kg/m3 and 996.808 ± 0.036 kg/m3	1544.2 ± 0.76 m/s and 1544.3 ± 0.76 m/s
318.15 K, m1 = 0.2503	998.41 ± 0.036 kg/m3 and 998.412 ± 0.036 kg/m3	1546.2 ± 0.77 m/s and 1546.3 ± 0.77 m/s
318.15 K, m1 = 0.3005	1000 ± 0.035 kg/m3	1548.1 ± 0.77 m/s and 1548.2 ± 0.77 m/s
318.15 K, m1 = 0.35	1001.56 ± 0.036 kg/m3	1549.9 ± 0.77 m/s and 1550 ± 0.77 m/s and 1550.1 ± 0.77 m/s
